Legend:
[1] = Chemical stability of the compound assessed as half life; type: physicochemical
[2] = biological target: T1, 5-hydroxytryptamine receptor 3A (Homo sapiens, UniProt P46098); test: Binding affinity to 5HT3A receptor
T1 sequence (P46098 whole entry): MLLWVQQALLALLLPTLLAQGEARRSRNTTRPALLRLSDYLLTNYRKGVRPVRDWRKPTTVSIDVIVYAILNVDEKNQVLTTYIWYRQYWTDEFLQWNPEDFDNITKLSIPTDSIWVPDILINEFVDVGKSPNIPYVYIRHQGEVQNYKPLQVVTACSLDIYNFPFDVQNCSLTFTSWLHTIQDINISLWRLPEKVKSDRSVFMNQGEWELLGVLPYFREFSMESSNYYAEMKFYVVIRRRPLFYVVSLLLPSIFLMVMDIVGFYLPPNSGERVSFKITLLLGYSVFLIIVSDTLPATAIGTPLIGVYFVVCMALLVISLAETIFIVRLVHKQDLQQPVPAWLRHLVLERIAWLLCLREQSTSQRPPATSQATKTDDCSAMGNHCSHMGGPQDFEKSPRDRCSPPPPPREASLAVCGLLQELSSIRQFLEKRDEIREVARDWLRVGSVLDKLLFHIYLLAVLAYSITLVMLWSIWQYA

| half-life [1] [h] | Ki [2] [nM] | SMILES |
| --- | --- | --- |
| 5 | – | CN1C2CCCC1CC(NC(=O)c1nn(C)c3ccccc13)C2 (stereo not drawn) [GRANISETRON] |
| 38 | 0.0316 | O=C1c2cccc3c2[C@H](CCC3)CN1[C@@H]1CN2CCC1CC2 [PALONOSETRON] |

— ChEMBL document CHEMBL1275268, “Computational analysis of ligand recognition sites of homo- and heteropentameric 5-HT3 receptors” (Eur J Med Chem, 2010)
